# Reference: patent US10308634B2, “Substituted indazoles, methods for the production thereof, pharmaceutical preparations that contain said new substituted indazoles, and use of said new substituted indazoles to produce drugs” (BAYER PHARMA AKTIENGESELLSCHAFT, priority 2014, dated 2019)
# Read-outs that look alike come from different tables or passages of the source.
# Columns and labels:
# human IRAK4 = human IRAK4 (Homo sapiens (Human), UniProt Q9NWZ3); test: IRAK4 kinase assay (IRAK4 TR-FRET assay); type: biochemical
# Method: The IRAK4-inhibitory activity of the inventive substances was measured in the IRAK4 TR-FRET assay (TR-FRET=Time Resolved Fluorescence Resonance Energy Transfer) described hereinafter.
# Recombinant fusion protein from N-terminal GST (glutathione S-transferase) and human IRAK4, expressed in baculovirus-infected insect cells (Hi5, BTI-TN-5B1-4, cell line purchased from Invitrogen, catalogue No. B855-02) and purified via affinity chromatography, was used as enzyme. The substrate used for the kinase reaction was the biotinylated peptide biotin-Ahx-[…] (C-terminus in amide form) which can be purchased, for example, from Biosyntan GmbH (Berlin-Buch).
# 50 nl of the respective solution were pipetted into a black low-volume 384-well microtitre plate (Greiner Bio-One, Frickenhausen, Germany), 2 μl of a solution of IRAK4 in assay buffer [50 mM HEPES pH 7.5, 5 mM MgCl2, 1.0 mM dithiothreitol, 30 μM activated sodium orthovanadate, 0.1% (w/v) of bovine gamma-globulin (BGG) 0.04% (v/v) nonidet-P40 (Sigma)] were added and the mixture was incubated for 15 min to allow prebinding of the substances to the enzyme prior to the kinase reaction. […] The concentration of the IRAK4 was adjusted to the respective activity of the enzyme and set such that the assay was carried out in the linear range. Typical concentrations were in the order of about 0.2 nM.
# The resulting mixture was incubated at 22° C. for 1 h to allow formation of a complex of the biotinylated phosphorylated substrate and the detection reagents. The amount of the phosphorylated substrate was then evaluated by measuring the resonance energy transfer from europium chelate-labelled anti-mouse-IgG antibody to streptavidin-XL665. […] The IC50 values were calculated by a 4-parameter fit.
# THP-1 cells = test: TNF-α secretion in THP-1 cells (LPS-triggered, HTRF); type: cell-based; conditions: Homo sapiens, read-out: IC50 with respect to the secretion of TNF-α in THP-1 cells
# Method: This test is suited to test substances for their ability to inhibit secretion of TNF-α (tumour necrosis factor alpha) in THP-1 cells (human monocytic acute leukaemia cell line). TNF-α is a cytokine involved in inflammatory processes. In this test, TNF-α secretion is triggered by incubation with bacterial lipopolysaccharide (LPS).
# The cells were incubated at room temperature for 15 min. 2-2.5 μl of 0.1 μg/ml LPS (Sigma, Escherichia coli 055:B5, Cat. No. L5418) dissolved in cell culture medium (final concentration 0.05 μg/ml) were then dispensed into each well. As neutral control, cells were treated with 0.05 μg/ml LPS and 1% DMSO and, as inhibitor control, with 1% DMSO only.
# The amount of TNF-α was determined using the TNF-alpha HTRF Detection Kit (Cisbio, Cat. No. 62TNFPEB/C). To this end, 2 μl of the detection solution in each case, consisting of anti-TNF-α-XL665 conjugate and anti-TNF-α-cryptate conjugate dissolved in the reconstitution buffer in accordance with the manufacturer's instructions, were added for the HTRF (Homogeneous Time-Resolved Fluorescence) test. After the addition, the mixture was incubated either at room temperature for 3 h or at 4° C. overnight.
# The activity of the substances is expressed as the ratio between neutral and inhibitor control in percent. The IC50 values were calculated using a 4-parameter fit.
# [1] = TR-FRET, 1 mM ATP, read-out: IC50 in the IRAK4 kinase assay
# Sequence of human IRAK4 (Q9NWZ3 whole entry): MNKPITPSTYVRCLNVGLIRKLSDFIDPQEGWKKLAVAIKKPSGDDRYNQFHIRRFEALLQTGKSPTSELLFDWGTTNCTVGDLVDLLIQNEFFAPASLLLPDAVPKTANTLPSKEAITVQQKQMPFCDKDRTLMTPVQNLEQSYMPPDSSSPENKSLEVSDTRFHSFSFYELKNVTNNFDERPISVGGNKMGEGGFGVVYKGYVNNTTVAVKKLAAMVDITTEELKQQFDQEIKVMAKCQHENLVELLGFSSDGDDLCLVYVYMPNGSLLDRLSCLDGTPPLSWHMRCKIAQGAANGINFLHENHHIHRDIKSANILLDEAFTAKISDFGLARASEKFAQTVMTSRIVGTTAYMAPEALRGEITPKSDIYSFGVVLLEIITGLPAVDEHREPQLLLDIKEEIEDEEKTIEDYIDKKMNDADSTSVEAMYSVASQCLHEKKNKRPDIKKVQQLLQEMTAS
SMILES,IC50 (human IRAK4; [1]) [nM],"IC50 (THP-1 cells; THP-1, 0.05 μg/ml LPS, 17 h) [nM]","IC50 (THP-1 cells; THP-1, 17 h) [nM]",IC50 (human IRAK4) [nM]
"COCCn1cc2cc(NC(=O)c3cccc(C(F)(F)F)n3)c(CO)cc2n1 [Example 2, N-[6-(Hydroxymethyl)-2-(2-methoxyethyl)-2H-indazol-5-yl]-6-(trifluoromethyl)pyridine-2-carboxamide]",–,15100,–,–
"COCCCn1cc2cc(NC(=O)c3cccc(C(F)(F)F)n3)c(CO)cc2n1 [Example 4, N-[6-(Hydroxymethyl)-2-(3-methoxypropyl)-2H-indazol-5-yl]-6-(trifluoromethyl)pyridine-2-carboxamide]",52.7,5600,–,–
"CC(C)(O)c1cc2nn(CCCO)cc2cc1NC(=O)c1cccc(C(F)(F)F)n1 [Example 6, N-[6-(2-Hydroxypropan-2-yl)-2-(3-hydroxypropyl)-2H-indazol-5-yl]-6-(trifluoromethyl)pyridine-2-carboxamide]",35.7,900,–,–
"CC(C)(O)c1cc2nn(CC3COC3)cc2cc1NC(=O)c1cccc(C(F)(F)F)n1 [Example 8, N-[6-(2-Hydroxypropan-2-yl)-2-(oxetan-3-ylmethyl)-2H-indazol-5-yl]-6-(trifluoromethyl)pyridine-2-carboxamide]",15,1000,–,–
"CC(C)(O)c1cc2nn(CCCS(C)(=O)=O)cc2cc1NC(=O)c1cccc(C(F)(F)F)n1 [Example 10, N-{6-(2-Hydroxypropan-2-yl)-2-[3-(methylsulphonyl)propyl]-2H-indazol-5-yl}-6-(trifluoromethyl)pyridine-2-carboxamide]",18.5,1000,–,–
"CC(C)(O)CCn1cc2cc(NC(=O)c3cccc(C(F)F)n3)c(C(C)(C)O)cc2n1 [Example 13, 6-(Difluoromethyl)-N-[2-(3-hydroxy-3-methylbutyl)-6-(2-hydroxypropan-2-yl)-2H-indazol-5-yl]pyridine-2-carboxamide]",1.3,–,100,–
"CC(C)(O)c1cc2nn(CCCO)cc2cc1NC(=O)c1cccc(C(F)F)n1 [Example 15, 6-(Difluoromethyl)-N-[6-(2-hydroxypropan-2-yl)-2-(3-hydroxypropyl)-2H-indazol-5-yl]pyridine-2-carboxamide]",12.3,200,–,–
"CC(C)(O)c1cc2nn(CCCOC(F)(F)F)cc2cc1NC(=O)c1cccc(C(F)(F)F)n1 [Example 17, N-{6-(2-Hydroxypropan-2-yl)-2-[3-(trifluoromethoxy)propyl]-2H-indazol-5-yl}-6-(trifluoromethyl)pyridine-2-carboxamide]",36,500,–,–
"CC(C)(O)c1cc2nn(CCCOCC(F)(F)F)cc2cc1NC(=O)c1cccc(C(F)(F)F)n1 [Example 18, N-{6-(2-Hydroxypropan-2-yl)-2-[3-(2,2,2-trifluoroethoxy)propyl]-2H-indazol-5-yl}-6-(trifluoromethyl)pyridine-2-carboxamide]",47.5,300,–,–
"Cc1nc(C(=O)Nc2cc3cn(CCC(C)(C)O)nc3cc2C(C)(C)O)ccc1F [Example 19, 5-Fluoro-N-[2-(3-hydroxy-3-methylbutyl)-6-(2-hydroxypropan-2-yl)-2H-indazol-5-yl]-6-methylpyridine-2-carboxamide]",8.9,–,100,–
"CC(C)(O)c1cccc(C(=O)Nc2cc3cn(CCCC(F)(F)F)nc3cc2C(C)(C)O)n1 [Example 21, 6-(2-Hydroxypropan-2-yl)-N-[6-(2-hydroxypropan-2-yl)-2-(4,4,4-trifluorobutyl)-2H-indazol-5-yl]pyridine-2-carboxamide]",117,1800,–,–
"CC(C)(O)c1cc2nn(CCC3(O)CC3)cc2cc1NC(=O)c1cccc(C(F)(F)F)n1 [Example 22, N-{2-[2-(1-Hydroxycyclopropyl)ethyl]-6-(2-hydroxypropan-2-yl)-2H-indazol-5-yl}-6-(trifluoromethyl)pyridine-2-carboxamide]",3.7,–,–,–
"COCCn1cc2cc(NC(=O)c3cccc(C(F)(F)F)n3)c(C(=O)OC)cc2n1 [Intermediate 4-2, Methyl 2-(2-methoxyethyl)-5-({[6-(trifluoromethyl)pyridin-2-yl]carbonyl}amino)-2H-indazole-6-carboxylate]",–,–,–,21.7
"COCCCn1cc2cc(NC(=O)c3cccc(C(F)(F)F)n3)c(C(=O)OC)cc2n1 [Intermediate 4-3, Methyl 2-(3-methoxypropyl)-5-({[6-(trifluoromethyl)pyridin-2-yl]carbonyl}amino)-2H-indazole-6-carboxylate]",–,–,–,13
"COC(=O)c1cc2nn(CCC(C)(C)O)cc2cc1NC(=O)c1cccc(C(F)(F)F)n1 [Intermediate 4-4, Methyl 2-(3-hydroxy-3-methylbutyl)-5-({[6-(trifluoromethyl)pyridin-2-yl]carbonyl}amino)-2H-indazole-6-carboxylate]",–,–,–,6.2

# Continued by falling IC50 (human IRAK4; [1]), values first:
IC50 (human IRAK4; [1]) [nM],"IC50 (THP-1 cells; THP-1, 0.05 μg/ml LPS, 17 h) [nM]",SMILES,"IC50 (THP-1 cells; THP-1, 17 h) [nM]",IC50 (human IRAK4) [nM]
867,16400,"O=C(Nc1cc2cn(CCO)nc2cc1CO)c1cccc(C(F)(F)F)n1 [Example 7, N-[2-(2-Hydroxyethyl)-6-(hydroxymethyl)-2H-indazol-5-yl]-6-(trifluoromethyl)pyridine-2-carboxamide]",–,–
264,5400,"CC(C)(O)c1cc2nn(CCO)cc2cc1NC(=O)c1cccc(C(F)(F)F)n1 [Example 5, N-[2-(2-Hydroxyethyl)-6-(2-hydroxypropan-2-yl)-2H-indazol-5-yl]-6-(trifluoromethyl)pyridine-2-carboxamide]",–,–
104,6500,"O=C(Nc1cc2cn(CC3COC3)nc2cc1CO)c1cccc(C(F)(F)F)n1 [Example 9, N-[6-(Hydroxymethyl)-2-(oxetan-3-ylmethyl)-2H-indazol-5-yl]-6-(trifluoromethyl)pyridine-2-carboxamide]",–,–
30.6,1000,"COCCn1cc2cc(NC(=O)c3cccc(C(F)(F)F)n3)c(C(C)(C)O)cc2n1 [Example 1, N-[6-(2-Hydroxypropan-2-yl)-2-(2-methoxyethyl)-2H-indazol-5-yl]-6-(trifluoromethyl)pyridine-2-carboxamide]",–,–
21.5,200,"CC(C)(O)c1cc2nn(CCCC(F)(F)F)cc2cc1NC(=O)c1cccc(C(F)(F)F)n1 [Example 16, N-[6-(2-Hydroxypropan-2-yl)-2-(4,4,4-trifluorobutyl)-2H-indazol-5-yl]-6-(trifluoromethyl)pyridine-2-carboxamide]",–,–
13.3,200,"Cc1cccc(C(=O)Nc2cc3cn(CCC(C)(C)O)nc3cc2C(C)(C)O)n1 [Example 20, N-[2-(3-Hydroxy-3-methylbutyl)-6-(2-hydroxypropan-2-yl)-2H-indazol-5-yl]-6-methylpyridine-2-carboxamide]",–,–
10.8,200,"CC(C)(O)c1cc2nn(CCS(C)(=O)=O)cc2cc1NC(=O)c1cccc(C(F)F)n1 [Example 14, 6-(Difluoromethyl)-N-{6-(2-hydroxypropan-2-yl)-2-[2-(methylsulphonyl)ethyl]-2H-indazol-5-yl}pyridine-2-carboxamide]",–,–
